From paper PMC3764026, “Adaptive Evolution of Escherichia coli to an α-Peptide/β-Peptoid Peptidomimetic Induces Stable Resistance” (PLoS ONE, 2013)
Converted amounts (≈) assume the structure as drawn. “And” between values parts separate entries of the source, which are not always exact repeats. Equal entries are not always repeated. Where two headings read alike, the source gives them in different places.

Experiments:
[1] = tested on: E. coli ATCC 25922 lineages adapted to peptidomimetic 1; assay type: cell-based, Escherichia coli; conditions: two technical duplicates; for MIC against peptidomimetic 1 after selection: MHB pH 7.4, 37°C, 18–20 h
Method: (§1) Continuous selection of resistance was performed for peptidomimetic 1 (Figure 1) and for the clinically relevant natural antimicrobial peptide, polymyxin B. A bacterial suspension of a single colony of E. coli ATCC 25922 was re-inoculated (10 µl) five times in unsupplemented MHB (990 µl). It was then re-inoculated in MHB supplemented with peptidomimetic 1 (ten lineages) or polymyxin B (ten lineages), and after ten re-inoculations at constant peptidomimetic or polymyxin B concentration, the concentrations were doubled. […] Four lineages grown in MHB with MilliQ water were included as control. Re-inoculations were performed twice a day, but were reduced to once a day when growth was slower as assessed by turbidity of the cultures. The total number of passages (supplemented with peptidomimetic/AMP) was 77 times equivalent to approx. 500 generations. For each increase in concentration the lineages were preserved as freezing stocks. Ten colony isolates were randomly selected from each lineage population at 32×MIC and preserved as freezing stocks.
(§2) MIC was determined by using the micro-dilution method according to guidelines of the Clinical and Laboratory Standards Institute. Peptidomimetic 1 and erythromycin 1∶2 serial dilutions were prepared from 1024 µg/mL stock solutions to give a final range of 512-0.5 µg/mL in the wells. Ampicillin 1∶2 serial dilutions were prepared from a 256 µg/mL stock solution to give a final range of 128-0.13 µg/mL in the wells. Polymyxin B and gentamicin 1∶2 serial dilutions were prepared from a 64 µg/mL stock solution to give a final range of 32-0.03 µg/mL in the wells. Also, 1∶2 serial dilutions of the AMPs KR-12, IsCTp, melittin and PEP-1-K were prepared from 64 µg/mL stock solutions to give a final range of 32-0.03 µg/mL in the wells; however this was performed in 1% peptone instead of in MHB since activity was drastically diminished in the latter (not shown).
(§3) The population lineages were tested for their susceptibility towards peptidomimetic 1, polymyxin B, gentamicin and ampicillin. Single-culture isolates selected from these populations were additionally tested against peptidomimetic 1, polymyxin B, erythromycin and the five reference AMPs. To estimate the level of cross-resistance to closely related peptidomimetics, MIC determinations were performed for peptidomimetics 2 and 3 (Figure 1) towards selected isolates. The bacterial suspensions were grown overnight in MHB at 37°C for determination of the population MIC, or individual isolates were grown overnight on non-selective BHI agar at 37°C. […] In all experiments, bacterial cells were suspended in 0.9% saline to give a turbidity of 0.13 at OD546 (approximately 1×10^8 CFU/mL) and diluted in MHB pH 7.4 to a final concentration of 5×10^5 CFU/mL in each well. Polypropylene plates (Nunc 442587) were used to minimize peptide binding, and the incubation time was 18–20 hours at 37°C. Incubation time was additionally extended up to 44 hours for the individual isolates due to a potential effect of growth rate on the outcome, but no effect was seen of this (not shown). MIC was found in a minimum of two technical (population MIC) or biological (isolate MIC) replicates as the lowest concentration of the AMP or antibiotic where no visible growth was observed.
(§4) Frozen stocks were reconditioned in unsupplemented MHB media for five transfers (∼35 generations) at 37°C. The heritability of resistance was established through MIC determination of bacterial populations as described above.

[2] = tested on: E. coli ATCC 25922 lineages adapted to polymyxin B; assay type: cell-based, Escherichia coli; conditions: polymyxin B-exposed lineages, ~35 generations unsupplemented; became similar to controls; not shown
Method: as §1, §2, §3, §4

Question: Which results are given for CC(=O)N[C@@H](CCCCNC(=N)N)C(=O)N(CCC(=O)N[C@@H](CCCCNC(=N)N)C(=O)N(CCC(=O)N[C@@H](CCCCNC(=N)N)C(=O)N(CCC(=O)N[C@@H](CCCCNC(=N)N)C(=O)N(CCC(=O)N[C@@H](CCCCNC(=N)N)C(=O)N(CCC(=O)N[C@@H](CCCCNC(=N)N)C(=O)N(CCC(N)=O)[C@@H](C)c1ccccc1)[C@@H](C)c1ccccc1)[C@@H](C)c1ccccc1)[C@@H](C)c1ccccc1)[C@@H](C)c1ccccc1)[C@@H](C)c1ccccc1 [peptidomimetic 1]?
Answer: MIC against peptidomimetic 1 after 35 generations w/o selection ([1]; peptidomimetic-exposed lineage 1, five passages in unsupplemented MHB): 128 to 256 µg/mL; MIC against peptidomimetic 1 after 35 generations w/o selection ([1]; peptidomimetic-exposed lineage 2, five passages in unsupplemented MHB): 256 µg/mL (≈ 120 µM); MIC against peptidomimetic 1 after selection ([1]; peptidomimetic-exposed lineage 2, population outgrown at 32×wt MIC): 256 µg/mL (≈ 120 µM); MIC against peptidomimetic 1 after 35 generations w/o selection ([1]; peptidomimetic-exposed lineage 3, five passages in unsupplemented MHB): 128 µg/mL (≈ 60 µM); MIC against peptidomimetic 1 after 35 generations w/o selection ([1]; peptidomimetic-exposed lineage 4, five passages in unsupplemented MHB): 128 µg/mL (≈ 60 µM); MIC against peptidomimetic 1 after selection ([1]; peptidomimetic-exposed lineage 4, population outgrown at 32×wt MIC): 256 µg/mL (≈ 120 µM); MIC against peptidomimetic 1 after 35 generations w/o selection ([1]; peptidomimetic-exposed lineage 5, five passages in unsupplemented MHB): 128 µg/mL (≈ 60 µM); MIC against peptidomimetic 1 after selection ([1]; peptidomimetic-exposed lineage 5, population outgrown at 32×wt MIC): 128 µg/mL and 64 to 128 µg/mL; MIC against peptidomimetic 1 after 35 generations w/o selection ([1]; peptidomimetic-exposed lineage 6, five passages in unsupplemented MHB): 64 to 128 µg/mL; MIC against peptidomimetic 1 after 35 generations w/o selection ([1]; peptidomimetic-exposed lineage 7, five passages in unsupplemented MHB): 128 µg/mL (≈ 60 µM); MIC against peptidomimetic 1 after selection ([1]; peptidomimetic-exposed lineage 7, population outgrown at 32×wt MIC): 128 µg/mL (≈ 60 µM); MIC against peptidomimetic 1 after 35 generations w/o selection ([1]; peptidomimetic-exposed lineage 8, five passages in unsupplemented MHB): 32 to 64 µg/mL; MIC against peptidomimetic 1 after 35 generations w/o selection ([1]; peptidomimetic-exposed lineage 9, five passages in unsupplemented MHB): 128 µg/mL (≈ 60 µM); MIC against peptidomimetic 1 after 35 generations w/o selection ([1]; peptidomimetic-exposed lineage 10, five passages in unsupplemented MHB): 32 µg/mL (≈ 15 µM); MIC against peptidomimetic 1 after selection ([1]; peptidomimetic-exposed lineage 10, population outgrown at 32×wt MIC): 256 µg/mL (≈ 120 µM); cross-resistance after removal of the selection pressure [2]: lost
